The target of assay [1] is Gamma-aminobutyric acid receptor subunit alpha-2 (Rattus norvegicus, UniProt P23576).
The target in assay [2] is Gamma-aminobutyric acid receptor subunit alpha-5 (Rattus norvegicus, UniProt P19969).
Assay [3] deals with Gamma-aminobutyric acid receptor subunit alpha-1 (Rattus norvegicus, UniProt P62813).
In assay [4] the target is Gamma-aminobutyric acid receptor subunit alpha-3 (Rattus norvegicus, UniProt P20236).

A word on the Ki: it is the dissociation constant of the complex between target and ligand, obtained from inhibition or displacement.

Several values for one entry are separate records, joined by “and”; a condition that tells them apart may be missing. Equal values may be shown once.

Sequence of Gamma-aminobutyric acid receptor subunit alpha-5 (P19969 whole entry): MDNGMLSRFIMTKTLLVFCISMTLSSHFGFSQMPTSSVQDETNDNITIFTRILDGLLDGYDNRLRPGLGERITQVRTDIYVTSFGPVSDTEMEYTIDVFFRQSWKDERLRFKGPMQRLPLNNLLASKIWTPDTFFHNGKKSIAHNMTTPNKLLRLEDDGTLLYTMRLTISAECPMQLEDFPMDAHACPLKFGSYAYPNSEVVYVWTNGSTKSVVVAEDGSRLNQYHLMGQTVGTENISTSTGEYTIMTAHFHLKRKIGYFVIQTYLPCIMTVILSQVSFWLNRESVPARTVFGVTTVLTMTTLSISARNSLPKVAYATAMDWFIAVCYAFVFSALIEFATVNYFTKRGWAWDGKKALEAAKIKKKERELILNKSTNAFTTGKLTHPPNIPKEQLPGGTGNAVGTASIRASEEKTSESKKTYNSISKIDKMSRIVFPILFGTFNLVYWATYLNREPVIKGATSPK
Sequence of Gamma-aminobutyric acid receptor subunit alpha-1 (P62813 whole entry): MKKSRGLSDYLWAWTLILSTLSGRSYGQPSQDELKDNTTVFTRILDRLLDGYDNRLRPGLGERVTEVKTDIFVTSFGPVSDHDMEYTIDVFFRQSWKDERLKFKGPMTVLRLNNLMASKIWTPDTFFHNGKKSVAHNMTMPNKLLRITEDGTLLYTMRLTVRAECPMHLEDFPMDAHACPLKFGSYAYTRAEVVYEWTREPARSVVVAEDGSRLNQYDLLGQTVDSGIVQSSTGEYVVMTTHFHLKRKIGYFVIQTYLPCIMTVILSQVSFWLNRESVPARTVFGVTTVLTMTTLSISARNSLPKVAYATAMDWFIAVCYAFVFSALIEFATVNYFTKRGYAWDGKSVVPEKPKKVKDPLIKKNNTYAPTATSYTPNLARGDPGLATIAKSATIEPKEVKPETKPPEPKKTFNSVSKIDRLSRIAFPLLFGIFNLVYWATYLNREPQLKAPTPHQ
Sequence of Gamma-aminobutyric acid receptor subunit alpha-2 (P23576 whole entry): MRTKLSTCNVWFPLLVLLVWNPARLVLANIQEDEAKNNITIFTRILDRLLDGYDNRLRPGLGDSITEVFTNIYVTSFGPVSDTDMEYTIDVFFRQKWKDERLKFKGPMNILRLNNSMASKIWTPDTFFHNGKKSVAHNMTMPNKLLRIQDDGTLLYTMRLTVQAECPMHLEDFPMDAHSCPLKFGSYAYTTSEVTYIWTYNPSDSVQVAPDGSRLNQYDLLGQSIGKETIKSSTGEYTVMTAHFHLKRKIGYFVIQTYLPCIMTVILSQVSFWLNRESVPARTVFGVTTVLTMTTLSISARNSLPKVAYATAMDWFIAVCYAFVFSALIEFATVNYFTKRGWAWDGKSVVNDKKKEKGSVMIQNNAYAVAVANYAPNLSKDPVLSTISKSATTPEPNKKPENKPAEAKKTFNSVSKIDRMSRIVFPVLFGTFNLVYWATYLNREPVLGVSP
Sequence of Gamma-aminobutyric acid receptor subunit alpha-3 (P20236 whole entry I342M/K409L): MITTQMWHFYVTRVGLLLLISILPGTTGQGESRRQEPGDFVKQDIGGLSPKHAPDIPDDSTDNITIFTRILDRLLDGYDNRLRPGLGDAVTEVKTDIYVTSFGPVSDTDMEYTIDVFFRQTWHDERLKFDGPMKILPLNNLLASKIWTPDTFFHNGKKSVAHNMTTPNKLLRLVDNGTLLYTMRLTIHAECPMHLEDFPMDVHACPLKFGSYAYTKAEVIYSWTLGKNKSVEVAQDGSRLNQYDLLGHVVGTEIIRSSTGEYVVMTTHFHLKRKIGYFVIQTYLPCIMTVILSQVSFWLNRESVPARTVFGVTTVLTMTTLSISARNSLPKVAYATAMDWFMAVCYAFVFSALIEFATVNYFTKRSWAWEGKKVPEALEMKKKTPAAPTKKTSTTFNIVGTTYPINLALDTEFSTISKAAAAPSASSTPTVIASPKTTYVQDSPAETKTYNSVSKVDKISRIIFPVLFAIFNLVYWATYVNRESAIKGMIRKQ

For the molecule `Cn1c2ccc(F)cc2c2c(C(=O)N3CCCC3)cn(-c3ccccc3)c(=O)c21` [6-FLUOR-2-FENYL-9-METHYL-4-(PYRROLIDINE-1-CARBONYL)-9H-PYRIDO[3,4B]INDOOL-1(2H)-ON], the Ki in assay [1] is 12.3 nM and 73 nM; in assay [2], 117 nM and 215 nM; in assay [3], 6.8 nM and 17 nM; in assay [4] it was 80.3 nM.

The values are drawn from BindingDB's records for PubMed 11454940 (Sanofi Synthelabo, 2001).
